Laboratory results taken from patent publication US20230085307A1, “PYRIDAZINONE COMPOUND AND HERBICIDE” (NISSAN CHEMICAL CORPORATION, priority 2019, published 2023).

Columns and labels:
late watergrass = test: Test Example 1: herbicidal activity, application before weed generation under submerged conditions (Table 16, symbol A); assay type: in vivo, late watergrass (Echinochloa oryzicola); details: 320 g/ha applied herbicide
How it was run: (§1)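 Submerged Wagner pots (alluvial soil, 4 cm water) sown with weed seeds and planted with 2.5-leaf rice seedlings; emulsifiable concentrate diluted in water applied to water surface on sowing day. Held in greenhouse at 25-30 °C; injury scored 0-5 by herbicidal rate after three weeks.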

Japanese bulrush = test: Test Example 1: herbicidal activity, application before weed generation under submerged conditions (Table 16, symbol B); assay type: in vivo, Japanese bulrush (Schoenoplectus juncoides); details: 320 g/ha applied herbicide
How it was run: as §1

oval-leafed pondweed = test: Test Example 1: herbicidal activity, application before weed generation under submerged conditions (Table 16, symbol C); assay type: in vivo, oval-leafed pondweed (Monochoria vaginalis); details: 320 g/ha applied herbicide
How it was run: as §1

barnyard grass [1] = test: Test Example 3: herbicidal effect by foliage application, Wagner pot (Table 18, symbol H); assay type: in vivo, barnyard grass (Echinochloa crus-galli); details: 320 g/ha
How it was run: (§2)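 Plants were sown in alluvial soil held under 0.1–0.5 cm standing water and grown 14 days in a greenhouse at 25–30 °C. An emulsifiable formulation, water-diluted to the set dose, was then sprayed onto the foliage, and effects were scored three weeks later using previously defined criteria.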

Chinese sprangletop = test: Test Example 3: herbicidal effect by foliage application, Wagner pot (Table 18, symbol D); assay type: in vivo, chinese sprangletop (Leptochloa chinensis); details: 320 g/ha
How it was run: as §2

rice flat sedge = test: Test Example 3: herbicidal effect by foliage application, Wagner pot (Table 18, symbol E); assay type: in vivo, rice flat sedge (Cyperus iria); details: 320 g/ha
How it was run: as §2

southern crabgrass [2] = test: Test Example 4: herbicidal effect by soil treatment (Table 19, symbol F); assay type: in vivo, southern crabgrass (Digitaria ciliaris); details: amount of applied herbicide 320 g/ha
How it was run: (§3)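 Herbicidal effect was rated 3 weeks after treatment, using the scoring criteria of an earlier test. The compound, formulated as an emulsion and diluted in water to a set herbicide amount, had been sprayed uniformly on soil over freshly sown seeds. Growth took place in a greenhouse at 25° C. to 30° C.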

green foxtail [3] = test: Test Example 4: herbicidal effect by soil treatment (Table 19, symbol G); assay type: in vivo, green foxtail (Setaria viridis); details: amount of applied herbicide 320 g/ha
How it was run: as §3

barnyard grass [4] = test: Test Example 4: herbicidal effect by soil treatment (Table 19, symbol H); assay type: in vivo, barnyard grass (Echinochloa crus-galli); details: amount of applied herbicide 320 g/ha
How it was run: as §3

wild oat [5] = test: Test Example 4: herbicidal effect by soil treatment (Table 19, symbol I); assay type: in vivo, wild oat (Avena fatua); details: amount of applied herbicide 320 g/ha
How it was run: as §3

blackgrass [6] = test: Test Example 4: herbicidal effect by soil treatment (Table 19, symbol J); assay type: in vivo, blackgrass (Alopecurus myosuroides); details: amount of applied herbicide 320 g/ha
How it was run: as §3

Italian ryegrass [7] = test: Test Example 4: herbicidal effect by soil treatment (Table 19, symbol K); assay type: in vivo, Italian ryegrass (Lolium multiflorum); details: amount of applied herbicide 320 g/ha
How it was run: as §3

windgrass [8] = test: Test Example 4: herbicidal effect by soil treatment (Table 19, symbol L); assay type: in vivo, windgrass (Apera spica-venti); details: amount of applied herbicide 320 g/ha
How it was run: as §3

velvetleaf [9] = test: Test Example 4: herbicidal effect by soil treatment (Table 19, symbol M); assay type: in vivo, velvetleaf (Abutilon theophrasti); details: amount of applied herbicide 320 g/ha
How it was run: as §3

redroot pigweed [10] = test: Test Example 4: herbicidal effect by soil treatment (Table 19, symbol N); assay type: in vivo, redroot pigweed (Amaranthus retroflexus); details: amount of applied herbicide 320 g/ha
How it was run: as §3

lambsquarters [11] = test: Test Example 4: herbicidal effect by soil treatment (Table 19, symbol O); assay type: in vivo, lambsquarters (Chenopodium album); details: amount of applied herbicide 320 g/ha
How it was run: as §3

chickweed [12] = test: Test Example 4: herbicidal effect by soil treatment (Table 19, symbol P); assay type: in vivo, common chickweed (Stellaria media); details: amount of applied herbicide 320 g/ha
How it was run: as §3

false cleavers [13] = test: Test Example 4: herbicidal effect by soil treatment (Table 19, symbol Q); assay type: in vivo, false cleavers (Galium spurium); details: amount of applied herbicide 320 g/ha
How it was run: as §3

persian speedwell [14] = test: Test Example 4: herbicidal effect by soil treatment (Table 19, symbol R); assay type: in vivo, Persian speedwell (Veronica persica); details: amount of applied herbicide 320 g/ha
How it was run: as §3

southern crabgrass [15] = test: Test Example 5: herbicidal effect by foliage application, plastic box (Table 20, symbol F); assay type: in vivo, southern crabgrass (Digitaria ciliaris); details: foliage application, 320 g/ha, three weeks after application
How it was run: (§4)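 Foliar spray test: emulsion formulation diluted in water to a set application rate, sprayed onto 14-day-old plants raised in diluvial soil at 25° C to 30° C under glass. Both herbicidal effect and crop effect rated visually three weeks later.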

green foxtail [16] = test: Test Example 5: herbicidal effect by foliage application, plastic box (Table 20, symbol G); assay type: in vivo, green foxtail (Setaria viridis); details: foliage application, 320 g/ha, three weeks after application
How it was run: as §4

barnyard grass [17] = test: Test Example 5: herbicidal effect by foliage application, plastic box (Table 20, symbol H); assay type: in vivo, barnyard grass (Echinochloa crus-galli); details: foliage application, 320 g/ha, three weeks after application
How it was run: as §4

wild oat [18] = test: Test Example 5: herbicidal effect by foliage application, plastic box (Table 20, symbol I); assay type: in vivo, wild oat (Avena fatua); details: foliage application, 320 g/ha, three weeks after application
How it was run: as §4

blackgrass [19] = test: Test Example 5: herbicidal effect by foliage application, plastic box (Table 20, symbol J); assay type: in vivo, blackgrass (Alopecurus myosuroides); details: foliage application, 320 g/ha, three weeks after application
How it was run: as §4

Italian ryegrass [20] = test: Test Example 5: herbicidal effect by foliage application, plastic box (Table 20, symbol K); assay type: in vivo, Italian ryegrass (Lolium multiflorum); details: foliage application, 320 g/ha, three weeks after application
How it was run: as §4

windgrass [21] = test: Test Example 5: herbicidal effect by foliage application, plastic box (Table 20, symbol L); assay type: in vivo, windgrass (Apera spica-venti); details: foliage application, 320 g/ha, three weeks after application
How it was run: as §4

velvetleaf [22] = test: Test Example 5: herbicidal effect by foliage application, plastic box (Table 20, symbol M); assay type: in vivo, velvetleaf (Abutilon theophrasti); details: foliage application, 320 g/ha, three weeks after application
How it was run: as §4

redroot pigweed [23] = test: Test Example 5: herbicidal effect by foliage application, plastic box (Table 20, symbol N); assay type: in vivo, redroot pigweed (Amaranthus retroflexus); details: foliage application, 320 g/ha, three weeks after application
How it was run: as §4

lambsquarters [24] = test: Test Example 5: herbicidal effect by foliage application, plastic box (Table 20, symbol O); assay type: in vivo, lambsquarters (Chenopodium album); details: foliage application, 320 g/ha, three weeks after application
How it was run: as §4

chickweed [25] = test: Test Example 5: herbicidal effect by foliage application, plastic box (Table 20, symbol P); assay type: in vivo, common chickweed (Stellaria media); details: foliage application, 320 g/ha, three weeks after application
How it was run: as §4

false cleavers [26] = test: Test Example 5: herbicidal effect by foliage application, plastic box (Table 20, symbol Q); assay type: in vivo, false cleavers (Galium spurium); details: foliage application, 320 g/ha, three weeks after application
How it was run: as §4

persian speedwell [27] = test: Test Example 5: herbicidal effect by foliage application, plastic box (Table 20, symbol R); assay type: in vivo, Persian speedwell (Veronica persica); details: foliage application, 320 g/ha, three weeks after application
How it was run: as §4

SMILES	Herbicidal effect on A: late watergrass (grade 0-5) (late watergrass)	Herbicidal effect on B: Japanese bulrush (grade 0-5) (Japanese bulrush)	Herbicidal effect on C: oval-leafed pondweed (grade 0-5) (oval-leafed pondweed)	herbicidal effect on H (barnyard grass), rating 0-5 (barnyard grass [1])	herbicidal effect on D (Chinese sprangletop), rating 0-5 (Chinese sprangletop)	herbicidal effect on E (rice flat sedge), rating 0-5 (rice flat sedge)	herbicidal effect rating, F: southern crabgrass (southern crabgrass [2])	herbicidal effect rating, G: green foxtail (green foxtail [3])	herbicidal effect rating, H: barnyard grass (barnyard grass [4])	herbicidal effect rating, I: wild oat (wild oat [5])	herbicidal effect rating, J: blackgrass (blackgrass [6])	herbicidal effect rating, K: Italian ryegrass (Italian ryegrass [7])	herbicidal effect rating, L: windgrass (windgrass [8])	herbicidal effect rating, M: velvetleaf (velvetleaf [9])	herbicidal effect rating, N: redroot pigweed (redroot pigweed [10])	herbicidal effect rating, O: lambsquarters (lambsquarters [11])	herbicidal effect rating, P: chickweed (chickweed [12])	herbicidal effect rating, Q: false cleavers (false cleavers [13])	herbicidal effect rating, R: persian speedwell (persian speedwell [14])	herbicidal effect grade, F: southern crabgrass (southern crabgrass [15])	other results
CCCC(=O)Oc1c(C)nn(C)c(=O)c1-c1c(-c2ccc(F)cc2OCC)sc2ccccc12 [1-062]	2 (Herbicidal rate of 20% or more and less than 40%)	2 (Herbicidal rate of 20% or more and less than 40%)	0 (Herbicidal rate of 5% or less (almost no effect))	5 (Herbicidal rate of 90% or more (almost completely withered))	3 (Herbicidal rate of 40% or more and less than 70%)	5 (Herbicidal rate of 90% or more (almost completely withered))	5 (Herbicidal rate of 90% or more (almost completely withered))	4 (Herbicidal rate of 70% or more and less than 90%)	4 (Herbicidal rate of 70% or more and less than 90%)	1 (Herbicidal rate of 5% or more and less than 20%)	5 (Herbicidal rate of 90% or more (almost completely withered))	4 (Herbicidal rate of 70% or more and less than 90%)	3 (Herbicidal rate of 40% or more and less than 70%)	3 (Herbicidal rate of 40% or more and less than 70%)	5 (Herbicidal rate of 90% or more (almost completely withered))	0 (Herbicidal rate of 5% or less (almost no effect))	3 (Herbicidal rate of 40% or more and less than 70%)	5 (Herbicidal rate of 90% or more (almost completely withered))	4 (Herbicidal rate of 70% or more and less than 90%)	5 (Herbicidal rate of 90% or more (almost completely withered))	herbicidal effect grade, G: green foxtail (green foxtail [16]): 5 (Herbicidal rate of 90% or more (almost completely withered)); herbicidal effect grade, H: barnyard grass (barnyard grass [17]): 4 (Herbicidal rate of 70% or more and less than 90%); herbicidal effect grade, I: wild oat (wild oat [18]): 3 (Herbicidal rate of 40% or more and less than 70%); herbicidal effect grade, J: blackgrass (blackgrass [19]): 5 (Herbicidal rate of 90% or more (almost completely withered)); herbicidal effect grade, K: Italian ryegrass (Italian ryegrass [20]): 3 (Herbicidal rate of 40% or more and less than 70%); herbicidal effect grade, L: windgrass (windgrass [21]): 5 (Herbicidal rate of 90% or more (almost completely withered)); herbicidal effect grade, M: velvetleaf (velvetleaf [22]): 5 (Herbicidal rate of 90% or more (almost completely withered)); herbicidal effect grade, N: redroot pigweed (redroot pigweed [23]): 5 (Herbicidal rate of 90% or more (almost completely withered)); herbicidal effect grade, O: lambsquarters (lambsquarters [24]): 3 (Herbicidal rate of 40% or more and less than 70%); herbicidal effect grade, P: chickweed (chickweed [25]): 5 (Herbicidal rate of 90% or more (almost completely withered)); herbicidal effect grade, Q: false cleavers (false cleavers [26]): 5 (Herbicidal rate of 90% or more (almost completely withered)); herbicidal effect grade, R: persian speedwell (persian speedwell [27]): 5 (Herbicidal rate of 90% or more (almost completely withered))
Cc1ccc(-c2sc3ccccc3c2-c2c(O)c(C)nn(C)c2=O)cc1C [1-065]	3 (Herbicidal rate of 40% or more and less than 70%)	0 (Herbicidal rate of 5% or less (almost no effect))	0 (Herbicidal rate of 5% or less (almost no effect))	3 (Herbicidal rate of 40% or more and less than 70%)	3 (Herbicidal rate of 40% or more and less than 70%)	5 (Herbicidal rate of 90% or more (almost completely withered))	0 (Herbicidal rate of 5% or less (almost no effect))	0 (Herbicidal rate of 5% or less (almost no effect))	0 (Herbicidal rate of 5% or less (almost no effect))	0 (Herbicidal rate of 5% or less (almost no effect))	0 (Herbicidal rate of 5% or less (almost no effect))	0 (Herbicidal rate of 5% or less (almost no effect))	0 (Herbicidal rate of 5% or less (almost no effect))	0 (Herbicidal rate of 5% or less (almost no effect))	0 (Herbicidal rate of 5% or less (almost no effect))	0 (Herbicidal rate of 5% or less (almost no effect))	3 (Herbicidal rate of 40% or more and less than 70%)	0 (Herbicidal rate of 5% or less (almost no effect))	4 (Herbicidal rate of 70% or more and less than 90%)	3 (Herbicidal rate of 40% or more and less than 70%)	herbicidal effect grade, G: green foxtail (green foxtail [16]): 3 (Herbicidal rate of 40% or more and less than 70%); herbicidal effect grade, H: barnyard grass (barnyard grass [17]): 3 (Herbicidal rate of 40% or more and less than 70%); herbicidal effect grade, I: wild oat (wild oat [18]): 0 (Herbicidal rate of 5% or less (almost no effect)); herbicidal effect grade, J: blackgrass (blackgrass [19]): 0 (Herbicidal rate of 5% or less (almost no effect)); herbicidal effect grade, K: Italian ryegrass (Italian ryegrass [20]): 2 (Herbicidal rate of 20% or more and less than 40%); herbicidal effect grade, L: windgrass (windgrass [21]): 0 (Herbicidal rate of 5% or less (almost no effect)); herbicidal effect grade, M: velvetleaf (velvetleaf [22]): 5 (Herbicidal rate of 90% or more (almost completely withered)); herbicidal effect grade, N: redroot pigweed (redroot pigweed [23]): 3 (Herbicidal rate of 40% or more and less than 70%); herbicidal effect grade, O: lambsquarters (lambsquarters [24]): 3 (Herbicidal rate of 40% or more and less than 70%); herbicidal effect grade, P: chickweed (chickweed [25]): 5 (Herbicidal rate of 90% or more (almost completely withered)); herbicidal effect grade, Q: false cleavers (false cleavers [26]): 3 (Herbicidal rate of 40% or more and less than 70%); herbicidal effect grade, R: persian speedwell (persian speedwell [27]): 5 (Herbicidal rate of 90% or more (almost completely withered))
